Assays:
[1] = test system: endometrial stromal cells; test: Morphometric analysis of stromal cells in hormone-stimulated endometrium assembloid; assay type: cell-based, human
Procedure: (§1) Hormone stimulation scheme aimed to recapitulate the mid-secretory phase of human endometrial cycle when receptive phenotype optimal for embryo implantation, known as window of implantation, is acquired. For this purpose, β-oestradiol (E2) stimulation was started in upper and lower compartments for 4 days to simulate the proliferative phase of human endometrial cycle. A total volume of 300 μL of organoid media supplemented by 2% charcoal stripped FBS (Sigma Aldrich, F6765) and 10 nM of β-oestradiol (E2, Sigma E4389) was added to the top compartment of the transwell culture system. A total volume of 1 mL of hEnSC medium supplemented by 2% charcoal stripped FBS (Sigma Aldrich, F6765) and 10 nM of β-oestradiol (E2, Sigma E4389) was added to the lower compartment. Media were changed each 2 days. After 4 days, upper and lower compartments were stimulated with full hormone mixture containing E2, progesterone (P4) and 8-bromoadenosine 3′,5′-cyclic monophosphate (CAMP) for 8 days. A total volume of 300 μL of organoid media supplemented by 2% charcoal stripped FBS (Sigma Aldrich, F6765), 10 nM of E2 (Sigma E4389), 1 μM of P4 (Sigma P7556) and 1 μM of cAMP (Sigma, B7880) was added to the top compartment of the transwell culture system. A total volume of 1 mL of hEnSC medium supplemented by 2% charcoal stripped FBS (Sigma Aldrich, F6765) and […] (Sigma E4389), 1 μM of P4 (Sigma P7556) and […] (Sigma, B7880) was added to the lower compartment. Media were changed each 2 days.
(§2) Morphometric analyses were performed on stromal and epithelial compartments on proliferative phase (after 4 days of E2 stimulation) and secretory phase (after 8 days of stimulation with E2, P4 and cAMP).
Cell segmentation and cell morphometric analyses were performed from confocal microscopy images of stromal and epithelial compartment. […]
Stromal length (μm) and width (μm) were acquired for each cell using the line tool from Fiji. […] In this case, only line measurements (in μm) corresponding to length and width of each stromal cell were recorded to calculate length/width ratio. […]

[2] = test system: epithelial endometrial cells; test: Morphometric analysis of surface epithelial cells in hormone-stimulated endometrium assembloid; assay type: cell-based, human
Procedure: as §1, §2
Cell segmentation and cell morphometric analyses were performed from confocal microscopy images of stromal and epithelial compartment. Vimentin and cytokeratin-7 were used as stromal and epithelial markers, respectively, to determine stromal and epithelial compartment. Phalloidin signal was used to perform cell segmentation of stromal and epithelial compartments. Cell segmentation was done in an intermediate field of the whole Z-stack, choosing a relatively flat area to maximize the accuracy of the segmentation using Fiji (https://imagej.net/software/fiji/).
Epithelial cells were segmented manually using polygon selection tool from Fiji. Cell contour was drawn with multiple points to accurately fit perimeter of each cell segmented. Fit spline option (“Edit”>“Selection”>“Fit spline”) was used in all cases to smooth cell contour and maximize the match of manual cell segmentation with cell perimeter. Each Region Of Interest (ROI) corresponding to each epithelial cell segmented was added to ROI manager (“Analyse”>“Tools” >“ROI manager”).
Once acquired all ROI, the following measurements were set (“Analyse”>“Set Measurements”): area (μm^2), perimeter (μm), and shape descriptors roundness, circularity, aspect ratio, and solidity. Roundness ((4·area)/(π·major axis^2)) ranges from 0 to 1 indicating elongated or circle-like shape. Circularity (4π·area/perimeter^2) ranges from 0 to 1 and correlates with shape roughness. Aspect ratio is defined as the ratio between major and minor axis of the best fit ellipse. Solidity, defined as a ratio between area and convex area, ranges from 0 to 1, describing a concave or convex shape.

[3] = stromal cells, proliferative (E2 4 days) vs secretory (E2, P4 and cAMP 8 days)

In the case of C[C@]12CC[C@@H]3c4ccc(O)cc4CC[C@H]3[C@@H]1CC[C@@H]2O [E2, β-oestradiol], the “length/width ratio (median)” value ([1]; stromal cells in 3D, proliferative phase = E2 4 days, secretory phase = E2, P4 and cAMP 8 days) is reported as 9.14, the “cell length (median)” value [1, 3] is reported as 105.4 μm and the “cell width (median)” value [1, 3] is reported as 11.39 μm. For the same compound, the “surface area (median)” value ([2]; proliferative (E2 4 days) vs secretory (E2, P4 and cAMP 8 days)) was 75.67 μm^2, the “aspect ratio (AR) (median)” value ([2]; proliferative vs secretory) was 1.584 and the “cell perimeters (median)” value ([2]; proliferative vs secretory) was 34.61 μm. The “cell roundness (median)” value ([2]; proliferative vs secretory) was 0.6315, the “circularity (median)” value ([2]; proliferative vs secretory) was 0.7920 and the “solidity (median)” value ([2]; proliferative vs secretory) was 0.9820.

Reference: patent US20260055375A1, “CULTURE METHOD” (Babraham Institute, priority 2023, published 2026)
